Data on eight molecules can be found in US20040009964A1, “Compositions and methods for the treatment of matrix metalloproteinase-related diseases” (BioInterface Technologies, Inc., priority 2002, published 2004).

For orientation: MIC means the least concentration at which growth counts as inhibited. A lower MIC goes with a more susceptible organism.

“Also recorded” adds a separate entry of the source. Some results are limits rather than exact numbers.

The target in test [1] is human neutrophil collagenase (Homo sapiens, UniProt P22894). To be noted: cited from earlier work; for Effect of metal ion binding on collagenase activity: binding to human neutrophil collagenase.
Chain of human neutrophil collagenase (P22894 101-467): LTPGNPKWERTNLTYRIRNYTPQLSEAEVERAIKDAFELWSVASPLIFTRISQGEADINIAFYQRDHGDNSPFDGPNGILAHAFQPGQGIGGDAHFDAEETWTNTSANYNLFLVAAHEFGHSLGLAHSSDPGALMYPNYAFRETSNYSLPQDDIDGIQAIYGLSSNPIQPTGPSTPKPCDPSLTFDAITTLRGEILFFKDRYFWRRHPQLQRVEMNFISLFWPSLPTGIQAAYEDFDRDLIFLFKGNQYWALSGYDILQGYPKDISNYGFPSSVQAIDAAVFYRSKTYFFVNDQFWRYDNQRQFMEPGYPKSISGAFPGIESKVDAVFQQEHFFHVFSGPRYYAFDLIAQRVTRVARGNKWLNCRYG
In a further test the test system is matrix metalloproteinase. The following applies: synoviocyte MMP activity; cited from earlier work.
In the next test the test system is E. coli (ATCC 25922). To be noted: overnight at 37° C., dilutions 1.95 to 250 μg/ml. Here is the method:
(§1) In vitro antimicrobial activity was calculated by determining the minimum inhibitory concentration (MIC) for a silver thiosulfate ion complex composition; for example, the silver thiosulfate ion complex produced according to Example 3. The antimicrobial activity of this embodiment was determined by using serial two-fold dilutions ranging from 1.95 to 250 μg/ml using tryptic soy broth (Difco) as a diluent. Each dilution was inoculated with a 0.005 ml aliquot from a 24-hour microbial growth culture having a concentration of approximately 10^5 to 10^7 CFU/ml. The dilutions were incubated overnight at 37° C. The MIC was determined by identifying the lowest dilution (expressed as μg/ml) of the silver thiosulfate ion complex that was without evidence of growth (i.e. was not cloudy).

In test [2] the test system is P. aeruginosa (ATCC 27853). To be noted: overnight at 37° C., dilutions 1.95 to 250 μg/ml. How it is done: as §1
For a further test, the system named is S. aureus (ATCC 25923). The following applies: overnight at 37° C., dilutions 1.95 to 250 μg/ml. Here is the method: as §1
Test [3] deals with S. epidermidis (ATCC 12228). To be noted: overnight at 37° C., dilutions 1.95 to 250 μg/ml. Here is the method:
as §1

In the case of `[Ag+]` [Ag(I)], the “Direct inhibition of matrix metalloproteinase” value in test [1] (Ag(I) concentrations up to 10 μM, higher concentrations precipitated in the culture media) is given as “did not directly inhibit”.

As to `[Au+]` [Au(I)], the “Effect of metal ion binding on collagenase activity” value (“Effect of metal ion binding” for short) in test [1] is “noncompetitive inhibition; also recorded: collagenase inhibition”.

On to `[Cd+2]` [Cd(II)], for which, in test [1], the “Effect of metal ion binding” value is given as “noncompetitive inhibition; also recorded: collagenase inhibition”.

For the molecule `[Cu+2]` [Cu(II)], the “Effect of metal ion binding” value in test [1] is listed as “noncompetitive inhibition; also recorded: collagenase inhibition”.

Consider `[Hg+2]` [Hg(II)], for which the “Effect of metal ion binding” value in test [1] is listed as “collagenase inhibition”.

`[Zn+2]` [Zn(II)]: the “Effect of metal ion binding” value in test [1] is “retention of activity”.

Consider `O=[N+]([O-])[O-].O=[N+]([O-])[O-].O=[N+]([O-])[O-].[Ga+3]` [gallium nitrate], for which the “Inhibition of matrix metalloproteinase activity” value in the test on matrix metalloproteinase is reported as “can inhibit matrix metalloproteinase activity”.

As to “Na4[Ag2(S2O3)3]H2O [Silver Thiosulfate Ion Complexes]”, the MIC (against E. coli (ATCC 25922); in test [2]; with S. aureus (ATCC 25923); in test [3]) was under 1.95 µg/mL throughout.
